Data from US20150306110A1, “COMPOSITIONS AND METHODS FOR TREATMENT OF INFLAMMATION AND HYPERKERATOTIC LESIONS” (Novelix Pharmaceuticals, Inc., priority 2008, published 2015).
Converted amounts (≈) assume the structure as drawn.

How the values were obtained:
[1] = system: canine lesion clinically diagnosed as basal cell carcinoma; assay: Topical treatment of canine basal cell carcinoma; assay type: in vivo, dog
Text: A 1% topical solution of NVX-207 in 20% ethanol, 20% Tween® 80 was applied to an exophytically growing slightly bleeding (on contact) tumor on the nose of a dog using a NVX-207 soaked cotton swab every second to third day for 7 weeks.

[2] = Solubility in ethanol, DMSO and ethanol-Tween 80; assay type: physicochemical; details: for solubility: organic solvent or mixture
Method: After solution in ethanol or DMSO, or chemically similar solvents, NVX-207 or a related compound may be formulated with co-solvents such as Cremophor EL® and/or Tween® 80, in a similar manner described for taxanes. For example, the formulation approach for paclitaxel (TAXOL®; Bristol-Myers Squibb) was to use 50% Cremophor EL® and 50% ethanol. The pharmaceutical formulation of paclitaxel contains 30 mg paclitaxel dissolved in 5 ml of this (1:1, v/v) mixture. These and equivalent formulations allow for the application of NVX-207 in sufficiently high concentrations not only for topical, but also for intralesional and systemic (intravenous infusion) use. Solubility of NVX-207 in ethanol was determined to be at least 300 mg/ml and reached 250 mg/ml in DMSO. […] The solubility of NVX-207 in ethanol-Tween® 80 was evaluated. Two-hundred mg of NVX-207 was dissolved in 1 ml ethanol. […] Then an equal volume of Tween® 80 was added, to achieve a stock solution of 100 mg/ml of NVX-207. The stock solution was clear and yellow. Each stock solution was diluted first 1:1 (50 mg/ml NVX-207), then 1:5 (20 mg/ml NVX-207) and finally 1:10 (10 mg/ml NVX-207) with water. […] NVX-207 therefore has, apart from its higher activity, significant advantages over betulinic acid, that include higher activity, better solubility in pharmaceutically suitable solvents, and better handling.

SK-N-FI = assay: Cell growth/survival, SK-N-FI neuronal cancer cells; assay type: cell-based; details: Homo sapiens, TP53 mut.
Method: (§1) Melanoma cell lines used in this study were maintained in Dulbecco's modified Eagle medium (DMEM with 4500 mg/l glucose) supplemented with 10% FCS from Gibco BRL (Life Technologies, Berlin, Germany). The canine mastocytoma cell line C2 (DeVinney et al, Am. J. Respir. Cell Mol. Biol. 3:413-20, 1990) was used in this study, along with additional human cell lines: RD-ES and TC-71 (human Ewing's sarcoma), SAOS2 (human osteosarcoma), HT-1080 (human fibrosarcoma), Caco-2 (human colon adenocarcinoma), A549 (human lung adenocarcinoma), Hep-G2 and Hep-3B (human hepatocellular carcinoma), SK-N-DZ and SK-N-FI (human embryonal neuroblastoma), HTB9 (human bladder cancer), MDA-468 and MCF-7 (human breast cancer) and SW872 liposarcoma. All breast cancer cells were routinely cultured in DMEM/F-12 or in DMEM alone supplemented with 10% FCS at 37° C. in a humidified 5% CO2 atmosphere. RD-ES and TC-71 sarcoma cell lines were maintained in RPMI 1640 (Biochrom KG, Berlin, Germany) containing 10% FCS at 37° C. in a humidified 5% CO2 atmosphere. […]
(§2) Briefly, cells were maintained in standard medium, harvested, and plated at equal densities (750,000 cells in 5 cm tissue culture dishes). […] For the assessment of cell growth, the number of surviving cells was determined using an automated cell counter from Beckman Coulter GmbH (Krefeld, Germany). […]

Caco-2 = assay: Cell growth/survival, Caco-2 colon adenocarcinoma cells; assay type: cell-based; details: Homo sapiens, TP53 neg.
Method: as §1, §2

Osteosarcoma-D17 = assay: Cell growth/survival, canine osteosarcoma D17 cells; assay type: cell-based; details: Canis lupus familiaris
MCF-7 = assay: Cell growth/survival, MCF-7 breast cancer cells; assay type: cell-based; details: Homo sapiens, MCF7, TP53 neg.
Method: as §1, §2

SK-N-DZ = assay: Cell growth/survival, SK-N-DZ neuronal cancer cells; assay type: cell-based; details: Homo sapiens, TP53 mut.
Method: as §1, §2

human skin = assay: Tolerability of topical NVX-207 on human skin; assay type: in vivo; details: 1% topical solution (200 μl, 20% ethanol, 20% Tween 80 in water), human arm, once a day for one week; checked up to 6 months after
Method: A 1% topical solution of NVX-207 (200 μl total volume in 20% ethanol, 20% Tween® 80 in water) was topically applied to an area of skin on a human arm once a day for one week. A control solution (20% ethanol/20% Tween® 80 and 80% water) was applied to an area of skin adjacent to the area to which the NVX-207 solution was applied, also for one week.

pigs = details: pig, in vivo
518A2 = assay: Cell growth/survival, 518A2 melanoma cells; assay type: cell-based; details: Homo sapiens, TP53 mut.
Method: as §1, §2

MDA-MB-468 = assay: Cell growth/survival, MDA-MB-468 breast cancer cells; assay type: cell-based; details: Homo sapiens, TP53 mut.
Method: as §1, §2

C=C(C)[C@@H]1CC[C@]2(C(=O)OCC(N)(CO)CO)CC[C@]3(C)[C@H](CC[C@@H]4[C@@]5(C)CC[C@H](OC(C)=O)C(C)(C)[C@@H]5CC[C@]43C)[C@@H]12 [NVX-207, 3-O-acetylbetulinic acid-2-amino-3-hydroxy-2-hydroxymethylpropyl ester]
Reduction of tumor ([1]; 1% topical solution in 20% ethanol, 20% Tween 80 every second to third day, after 3 weeks): about 90% | Inflammation during treatment ([1]; topical): absence of inflammation | Increase in solubility in DMSO compared to betulinic acid ([2]; DMSO): over 20 fold | Increase in solubility in ethanol compared to betulinic acid ([2]; ethanol): over 300 fold | solubility ([2]; Solubility in DMSO): 250 mg/mL (≈ 415 mM) | solubility ([2]; Solubility in ethanol): ≥ 300 mg/mL | IC50 (SK-N-FI): 3.7 µM | IC50 (Caco-2): 2.7 µM | IC50 (Osteosarcoma-D17): 3.8 µM | IC50 (MCF-7): 4 µM | IC50 (SK-N-DZ): 2.7 µM | Undesirable (toxic) effects on treated skin (human skin): no undesirable (toxic) effects | Blood chemistry and hematology (blood status, mineral homoeostasis, liver and kidney functions) (pigs): did not reflect any systemic NVX-207-induced impact | Histopathological changes in skin biopsies (pigs): No treatment-related histopathological changes were observed | Macroscopic skin irritations (pigs; 2 weeks): No macroscopic NVX-207 related skin irritations were observed | IC50 (518A2): 2.6 µM | IC50 (MDA-MB-468): 3.6 µM
